The source of these data is patent US12011432B2, “Method of modulating ribonucleotide reductase” (CASE WESTERN RESERVE UNIVERSITY, priority 2018, dated 2024).

SMILES strings stand for the structures.

Series [1] relates to Human pancreatic cancer cells (Pancl). Briefly: Cancer cell line growth inhibition assay (DNA content). It is filed as cell-based. Further details: inhibition of growth of Pancl cells: dose or concentration left out as unconfirmed. As to conditions: for IC50: Homo sapiens, Pancreatic cancer cell, 72 h, continuous exposure for three days; for IC50 / activity/potency against growth of Pancl cells (in words): DNA content per well; for inhibition of growth of Pancl cells / activity/potency against growth of Pancl cells (in words): three days. As to the method:
Growth inhibition assays were performed in the Translational Research Shared Resource of the Case Comprehensive Cancer Centre. Human pancreatic cancer cells (Pancl) were maintained in standard growth medium consisting of (RPMI1640+10% FBS+2 mM glutamine+100 U/mL penicillin, and […] streptomycin). Cells were monitored and shown to be negative for mycoplasma contamination using the Mycoplasma Detection kit (MycoAlert™, Lonza, Basel, Switzerland). For growth inhibition assays, cells were harvested by trypsinisation and seeded into 96-well tissue culture plates at 2500 cells/mL. The following day, triplicate wells were treated with an appropriate volume of 5x-inhibitor-containing medium. The cells were cultured for 3 additional days at 37° C. in a 5% CO2 humidified incubator. Cell growth was assessed by measuring total DNA content per well using an adaptation of the method of Labarca and Paigen.

For another series, the system named is blood progenitor cells. As to conditions: previously shown, cited from earlier work.

For orientation: IC50 means the midpoint of a concentration-inhibition curve. Take `O=C1Nc2ccccc2/C1=N\NC(=O)c1ccccc1O` [TP1, (E)-2-Hydroxy-N′-(2-Oxoindolin-3-Ylidene)Benzohydrazide]: in series [1], the 50% inhibitory concentration (IC50) was greater than 10000 nM and the “inhibition of growth of Pancl cells” value is “did not inhibit the growth”.

By melting point is commonly meant the temperature, or range, at which the solid turns liquid. For `O=C(N/N=C/c1cc(-c2ccccc2)ccc1O)c1ccccc1O` [TP2], the melting point fell in the range of 273.5 to 274.9 °C. The IC50 in series [1] fell in the range of 2000 to 3000 nM.

In turn, `O=C(N/N=C/c1cc(-c2ccsc2)ccc1O)c1ccccc1O` [TP3, (E)-2-Hydroxy-N′-(2-Hydroxy-5-(Thiophen-3-Yl)-Benzylidene)-Benzohydrazide] gave a melting point of 282.9 to 284.6 °C. The molecule further yielded an IC50 in series [1] of 2000 to 3000 nM.

Consider `COc1ccc(-c2ccoc2)c(/C=N/NC(=O)c2ccccc2O)c1O` [TP4, (E)-N′-(6-(Furan-3-Yl)-2-Hydroxy-3-Methoxybenzylidene)-2-Hydroxybenzohydrazide], for which the melting point is 228.3 °C (dec.). Further, the half-inhibitory concentration (IC50) in series [1] was less than 1500 nM.

Turning to `COc1ccc(-c2ccccc2)c(/C=N/NC(=O)c2ccccc2O)c1O` [TP5, (E)-2-Hydroxy-N′-((3-Hydroxy-4-Methoxy-11,1′-Biphenyll-2-Yl)Methylene)-Benzohydrazide], the melting point fell in the range of 257.9 to 259.4 °C. Also, the IC50 in series [1] is less than 1500 nM.

As for `COc1ccc(-c2ccsc2)c(/C=N/NC(=O)c2ccccc2O)c1O` [TP6, (E)-2-Hydroxy-N′-(2-Hydroxy-3-Methoxy-6-(Thiophen-3-Yl)Benzylidene)-Benzohydrazide], the melting point was 229.5 °C. For the same molecule, in series [1], the IC50 is less than 1500 nM and the “activity/potency against growth of Pancl cells (in words)” value was “greatest potency”. Further, the “decrease in IC50 over the lead compound NSAH (TP8)” value in series [1] (Pancl cells) is listed as greater than 2 fold.

The molecule `Nc1ncnc2c1ncn2-c1ccc(/C=N/NC(=O)c2ccccc2O)cc1` [TP7, (E)-N′-(4-(6-Amino-9H-Purin-9-Yl)Benzylidene)-2-Hydroxybenzohydrazide] showed a melting point of 229.5 °C. In series [1], the IC50 is greater than 10000 nM and the “inhibition of growth of Pancl cells” value is “did not inhibit the growth”.

Consider `O=C(N/N=C/c1c(O)ccc2ccccc12)c1ccccc1O` [TP8, (E)-2-Hydroxy-N′-((2-Hydroxynaphthalen-1-Yl)Methylene)-Benzohydrazide], for which the melting point was 223.8 °C. Besides, in the series on blood progenitor cells, the “effectiveness against blood progenitor cells versus cancer cell lines” value is on record as “much less effective”. Also, the “therapeutic index compared with gemcitabine” value in the series on blood progenitor cells (same cell-cell comparison) is reported as “higher therapeutic index than gemcitabine”. For the same molecule, the IC50 in series [1] is less than 1500 nM.

As to `COc1ccc(-c2cnc(-c3ccccc3O)s2)cc1` [TP9, 2-(5-(4-Methoxyphenyl)Thiazol-2-Yl)-Phenol], the melting point was in the range of 95.2 to 96.8 °C. Moreover, in series [1], the IC50 is greater than 10000 nM, the “inhibition of growth of Pancl cells” value is “did not inhibit the growth” and the “activity/potency against growth of Pancl cells (in words)” value is “ineffective”.

The molecule `O=C(N/N=C/c1c(O)ccc2ccccc12)c1ccc(-n2ccccc2=O)cc1` [TP10, (E)-N′-((2-Hydroxynaphthalen-1-Yl)Methylene)-4-(2-Oxopyridin-1(2H)-Yl)-Benzohydrazide] gave a melting point of 258.6 °C. For the same molecule, the IC50 in series [1] was 2000 to 3000 nM.

Turning to `O=C(NNC(=O)c1c(O)ccc2ccccc12)c1cccnc1` [TP11, N′-(2-Hydroxy-1-Naphthoyl)-Nicotinohydrazide], the melting point was in the range of 227.1 to 228.6 °C. Further, in series [1], the IC50 is greater than 10000 nM and the “inhibition of growth of Pancl cells” value is “did not inhibit the growth”.

The molecule `O=C(N/N=C/c1cccnc1)c1c(O)ccc2ccccc12` [TP12, (E)-2-Hydroxy-N′-(Pyridin-3-Ylmethylene)-1-Naphthohydrazide] had a melting point of 202.8 to 204.5 °C. For the same molecule, in series [1], the IC50 is greater than 10000 nM and the “inhibition of growth of Pancl cells” value is recorded as “did not inhibit the growth”.

For `O=C(NNC(=O)c1ccccc1O)c1cccnc1` [TP13, N′-(2-Hydroxybenzoyl)-Nicotinohydrazide], the melting point was 216.6 to 217.7 °C. In series [1], the IC50 was greater than 10000 nM and the “inhibition of growth of Pancl cells” value is “did not inhibit the growth”.
